Like-named read-outs stand apart in the source and are kept apart here.
How the values were obtained:
22Rv1 cells [1] = assay: Ferroptosis rescue of 2-63 plus BSO, MTT, 22Rv1 cells; type: cell-based; conditions: BSO 100 μM 16 h, 2-63 5 μM 24 h; DFO 100 μM, α-Toc 100 μM, Fer-1 0.5 μM, ZnPP 3 μM
From the text: (§1) It was first investigated if iron chelators or antioxidants could rescue the viability of drug combination-treated cells. […] HO-1 catalyzes the decomposition of heme into carbon monoxide, biliverdin, and Fe^2+. […] Both Fer-1 and the lipophilic antioxidant α-Toc can effectively scavenge radicals in phosphatidylcholine lipid bilayers and break the redox cycle that generates lipid hydroperoxide.

VCaP cells [2] = assay: Ferroptosis rescue/enhancement of 2-63 plus BSO, MTT, VCaP cells; type: cell-based; conditions: for rescue of 2-63 plus BSO-caused viability loss, VCaP cells: BSO 100 μM 16 h, 2-63 2.5 μM 24 h, DFO 100 μM, α-Toc 100 μM, Fer-1 0.5 μM, ZnPP 3 μM
From the text: as §1

C4-2 cells [3] = conditions: for potentiation by BSO compared to 2-63, C4-2 cells: drug 2.5 μM, BSO pretreatment 16 h, 24 h
Procedure: (§4) Cell viability was then assessed using an MTT assay.
(§5) PCa cells (6×10^3 cells/well) were seeded into 96-well plates overnight and then treated with indicated compounds at indicated concentrations and time durations. The MTT (3-(4, 5-Dimethylthiazol-2-yl)-2,5-diphenyltetrazolium bromide) assay was performed according to the standard protocol. Briefly, MTT (0.5 mg/mL) was incubated with cells at 37° C. for 3 hours. Supernatant was removed, followed by the addition of dimethyl DMSO (100 μl). After incubation for 30 minutes at 37° C., absorbance was read at 570 nm on a microplate reader.

22Rv1 cells [4] = assay: BSO pretreatment plus drug, MTT viability, 22Rv1 cells; conditions: drug 2.5 μM, BSO pretreatment 16 h, 24 h
Procedure: as §4, §5

[5] = tested on: AR transcriptional activity in MDA-kb2 cells; assay: cells; type: cell-based; conditions: DHT 1 nM; for suppression of DHT-stimulated luciferase activity: 1-5 μM; for AR inhibition at higher concentrations relative to comparators: 2.5 and 5 μM; for inhibition at 1 µM: MDA-kb2, 1 μM compound, read-out: inhibition of DHT-stimulated luciferase activity
Procedure: MDA-kb2-cell-based ARE luciferase assays were performed to assess the influence of 2-63 and related compounds on AR transcriptional activity. […] Upon androgen stimulation and addition of a luciferase substrate, […], and the intensity is proportional to the extent of AR activation. An agent that either antagonistically competes with DHT for AR binding or reduces the expression of AR diminishes luciferase activity/fluorescence signal in this experimental system. […] 10b (an alcohol) and 11 b (an azide) are synthetic precursors of the ITC hybrid 12b.
Luciferase Assay. […] For all procedures, cells were incubated at CO2 free condition. Steady-Glo® (Promega Corp., Madison, WI) reagent was added to culture media with shaking for 10 min. Samples (100 μL) were transferred to an opaque 96-well white plate, and luminescence was measured using a luminometer.

VCaP cells [6] = assay: BSO pretreatment plus drug, MTT viability, VCaP cells; conditions: drug 2.5 μM, BSO pretreatment 16 h, 24 h
Procedure: as §4, §5

VCaP cells [7] = assay: 3-79 plus BSO, MTT viability, VCaP cells; type: cell-based; conditions: for rescue of 3-79 plus BSO-induced viability loss, VCaP cells: 3-79 10 μM, BSO 100 μM, DFO 100 μM, α-Toc 100 μM, Fer-1 0.5 μM
Procedure: 3-79 and BSO effectively reduce the viability of VCaP cells. […] The viability loss of VCaP cells is rescued by antioxidants and iron chelators. […] Data (n=6-8) represent mean±SD obtained from MTT assay. Statistical significance was assessed by using two-tailed Student's t-tests. ***, P<0.001.

VCaP cells [8] = assay: MTT viability assay, VCaP cells; type: cell-based; conditions: 72 h, full media, MTT, read-out: IC50, viability of VCaP cells
From the text: (§2) Biological Characterization. ITC-ARi hybrid drugs effectively reduce the viability of PCa cells. By using an MTT assay, it was first examined if the newly synthesized hybrid drugs affect the viability of CRPC-relevant PCa cells. PCa VCaP cells naturally express abundant wild type FL AR as well as AR splice variants (e.g., AR-V7). These cells were, therefore, used as one of the cell culture models in this work to investigate the drug-caused viability loss and AR downregulation.

22Rv1 cells [9] = assay: MTT viability assay, 22Rv1 cells; type: cell-based; conditions: 5 μM, 72 h
From the text: as §2

C4-2 cells [10] = assay: MTT viability assay, C4-2 cells; type: cell-based; conditions: 5 μM, 72 h
From the text: as §2

Hsp90, Hsp70, HO-1 = assay: Western blotting of Hsp90, Hsp70 and HO-1 in VCaP cells; type: cell-based; conditions: 16 h, 5 and 15 μM
Procedure: (§3) Western Blotting. […] Proteins in cell lysates (40 μg) were separated using electrophoresis on SDS-PAGE and transferred onto PVDF (polyvinylidenedifluoride) membranes. Membranes were blocked in 5% fat-free milk followed by incubation with primary antibodies overnight at 4° C., and the secondary horseradish peroxidase-conjugated anti-rabbit or anti-mouse antibodies. The blots were developed in the Enhanced Chemiluminescence mixture and detected by ImageQuant™ LAS 4000 imaging system (GE). Density of protein bonds were calculated and analyzed by using imageJ software downloaded from the National Institute of Health website.

[11] = tested on: acetylation of α-tubulin and histone H3 (markers for HDAC6 and nuclear HDAC inhibition); assay: Western blotting of acetylation markers in VCaP cells; type: cell-based; conditions: 16 h, 2-63 and 12b 5 and 15 μM, SAHA 1 μM; for α-tubulin acetylation: SFN 15 μM
Procedure: as §3

[12] = tested on: AR, AR-V7, c-Myc, HO-1, Hsp70; assay: Western blotting under BSO combination, VCaP cells; type: cell-based
Procedure: as §1, §3

C4-2 cells [13] = conditions: 5 μM, DHT 1 nM, charcoal stripped FBS, 6 days
Procedure: The medium and drug were refreshed every two days.
The anti-PCa potential of 2-63 was further characterized by assessing its inhibitory effects on DHT-stimulated C4-2 cell growth. […] C4-2 cells were cultured in charcoal-stripped, steroid-free medium and cells were stimulated with androgen.

C=CC1=C(C)c2cc3[n-]c(cc4[n-]c(cc5nc(cc1n2)C(C)=C5C=C)c(C)c4CCC(=O)O)c(CCC(=O)O)c3C.[Zn+2] [ZnPP, Zinc(II) protoporphyrin IX]
rescue of 2-63 plus BSO-caused viability loss, 22Rv1 cells (22Rv1 cells [1]): notable cytoprotective effects
rescue of 2-63 plus BSO-caused viability loss, VCaP cells (VCaP cells [2]): notable cytoprotective effects

CC1(C)C(=O)N(c2ccc(C#N)c(C(F)(F)F)c2)C(=S)N1c1ccc(CCCCCCN=[N+]=[N-])nc1 [11b, 4-(3-(6-(6-Azidohexyl)pyridin-3-yl)-4,4-dimethyl-5-oxo-2-thioxoimidazolidin-1-yl)-2-(trifluoromethyl) benzonitrile]
potentiation by BSO compared to 2-63, C4-2 cells (C4-2 cells [3]): more limited
potentiation by BSO compared to 2-63, 22Rv1 cells (22Rv1 cells [4]): more limited
suppression of DHT-stimulated luciferase activity [5]: decreased luciferase activity in a dose-dependent manner
AR inhibition at higher concentrations relative to comparators [5]: Enz-comparable
inhibition at 1 µM [5]: 60%
potentiation by BSO compared to 2-63, VCaP cells (VCaP cells [6]): more limited

ferric ammonium citrate
effect of exogenous iron on BSO plus 2-63 combination, C4-2 cells (C4-2 cells [3]; ferric iron 25 μM, BSO 100 μM, 2-63 0.6-5 μM): significantly enhanced the suppressive effects
effect of exogenous iron on BSO plus 2-63 combination, VCaP cells (VCaP cells [2]; ferric ammonium citrate 25 μM, BSO 100 μM, 2-63 1 μM): exacerbated the lethal effect

CN(C)C/C=C/C(=O)Nc1ccc(N2C(=S)N(c3ccc(C#N)c(C(F)(F)F)c3)C(=O)C2(C)C)cc1F [3-79, (E)-N-(4-(3-(4-cyano-3-(trifluoromethyl)phenyl)-5,5-dimethyl-4-oxo-2-thioxoimidazolidin-1-yl)-2-fluorophenyl)-4-(dimethylamino)but-2-enamide]
potency of 3-79 in viability suppression with BSO (VCaP cells [7]; VCaP, 3-79 10 μM plus BSO 100 μM): increased under GSH deficient conditions

CC1(C)C(=O)N(c2ccc(C#N)c(C(F)(F)F)c2)C(=S)N1c1ccc(CCCCN=C=S)nc1 [12a, 4-(3-(6-(4-Isothiocyanatobutyl)pyridin-3-yl)-4,4-dimethyl-5-oxo-2-thioxoimidazolidin-1-yl)-2-(trifluoromethyl) benzonitrile]
IC50 (VCaP cells [8]; Homo sapiens, VCaP): 4.85 µM

C[C@]12CCC(=O)C[C@@H]1CC[C@@H]1[C@@H]2CC[C@]2(C)[C@@H](O)CC[C@@H]12 [DHT, 5α-dihydrotestosterone, reference compound]
increase of luciferase activity ([5]; 24 h): 8.6 fold

CC(=O)NC(CSC(=S)NCCc1ccccc1)C(=O)O (stereo not shown) [PEITC-NAC, reference compound]
potentiation by BSO compared to 2-63, C4-2 cells (C4-2 cells [3]): more limited
relative potency in viability reduction, 22Rv1 cells (22Rv1 cells [9]): 12b>2-63>PEITC-NAC
potentiation by BSO compared to 2-63, 22Rv1 cells (22Rv1 cells [4]): more limited
relative potency in viability reduction, C4-2 cells (C4-2 cells [10]): 12b>2-63>PEITC-NAC
potentiation by BSO compared to 2-63, VCaP cells (VCaP cells [6]): more limited
IC50 (VCaP cells [8]): 10.1 µM

C[S+]([O-])CCCCN=C=S (stereo not shown) [SFN, sulforaphane, reference compound]
HO-1 protein level (Hsp90, Hsp70, HO-1): dose-dependently upregulated
Hsp70 protein level (Hsp90, Hsp70, HO-1): significantly induced
Hsp90 protein level (Hsp90, Hsp70, HO-1): did not change
α-tubulin acetylation [11]: upregulated

CNC(=O)c1ccc(N2C(=S)N(c3ccc(C#N)c(C(F)(F)F)c3)C(=O)C2(C)C)cc1F [Enz, 4-(3-(4-cyano-3-(trifluoromethyl)phenyl)-5,5-dimethyl-4-oxo-2-thioxoimidazolidin-1-yl)-2-fluoro-N-methyl benzamide, reference compound]
expression of examined cellular markers (AR, c-Myc, HO-1) ([12]; VCaP, Enz 10 μM, with or without BSO 100 μM, except upregulating AR-V7): did not affect
viability reduction of DHT-stimulated C4-2 cells (C4-2 cells [13]): 25%

O=C(CCCCCCC(=O)Nc1ccccc1)NO [SAHA, suberoylanilide hydroxamic acid, reference compound]
histone H3 acetylation [11]: induced notable global acetylation
α-tubulin acetylation [11]: induced notable global acetylation

CCOC(=O)c1ccc(NC2CCCCC2)c(N)c1 [Fer-1, ferrostatin-1]
rescue of 2-63 plus BSO-caused viability loss, 22Rv1 cells (22Rv1 cells [1]): rescued
rescue of AR/AR-V7 under 2-63 plus BSO, VCaP cells ([12]; DFO 100 μM, Fer-1 1 μM, BSO 100 μM, 2-63 2.5 μM, 24 h): failed to rescue AR/AR-V7
rescue of 2-63 plus BSO-caused viability loss, VCaP cells (VCaP cells [2]): rescued
rescue of 3-79 plus BSO-induced viability loss, VCaP cells (VCaP cells [7]): rescued

CC1(C)C(=O)N(c2ccc(C#N)c(C(F)(F)F)c2)C(=S)N1c1ccc(CCCCCCO)nc1 [10b, 4-(3-(6-(6-Hydroxyhexyl)pyridin-3-yl)-4,4-dimethyl-5-oxo-2-thioxoimidazolidin-1-yl)-2-(trifluoromethyl) benzonitrile]
suppression of DHT-stimulated luciferase activity [5]: decreased luciferase activity in a dose-dependent manner
AR inhibition at higher concentrations relative to comparators [5]: Enz-comparable
inhibition at 1 µM [5]: 60%

Cc1c(C)c2c(c(C)c1O)CC[C@@](C)(CCC[C@H](C)CCC[C@H](C)CCCC(C)C)O2 [α-Toc, α-tocopherol]
rescue of 2-63 plus BSO-caused viability loss, 22Rv1 cells (22Rv1 cells [1]): rescued
rescue of 2-63 plus BSO-caused viability loss, VCaP cells (VCaP cells [2]): rescued
rescue of 3-79 plus BSO-induced viability loss, VCaP cells (VCaP cells [7]): rescued
